Measured values from US12150940B2, “WASp-protecting small molecules, compositions, methods and uses thereof in the treatment of innate and acquired immune-related disorders or conditions” (BAR ILAN UNIVERSITY, priority 2016, dated 2024).

Tests used:
WASp [1] = target: T1, WASp (Homo sapiens, UniProt P42768); assay: WASp ubiquitylation in platelets (immunoprecipitation, anti-ubiquitin blot); type: cell-based; settings: 15 min pre-incubation, vs activated untreated cells
T1 construct: endogenous in cells; host or cells: primary human platelets from healthy donors
T1 sequence (P42768 1-502): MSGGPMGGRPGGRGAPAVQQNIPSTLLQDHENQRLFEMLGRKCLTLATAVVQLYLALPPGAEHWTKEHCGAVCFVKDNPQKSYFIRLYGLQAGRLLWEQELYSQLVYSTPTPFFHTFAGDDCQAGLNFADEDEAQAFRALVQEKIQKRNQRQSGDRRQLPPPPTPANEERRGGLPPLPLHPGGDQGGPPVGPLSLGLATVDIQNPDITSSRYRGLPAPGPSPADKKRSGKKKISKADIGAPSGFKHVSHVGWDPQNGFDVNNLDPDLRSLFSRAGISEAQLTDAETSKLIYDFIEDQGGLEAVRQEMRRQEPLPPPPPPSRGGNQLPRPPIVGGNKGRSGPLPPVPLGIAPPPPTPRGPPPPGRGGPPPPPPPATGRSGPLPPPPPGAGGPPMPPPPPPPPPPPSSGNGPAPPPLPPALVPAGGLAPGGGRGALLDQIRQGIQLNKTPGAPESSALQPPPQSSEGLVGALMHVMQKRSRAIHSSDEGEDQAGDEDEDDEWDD
Protocol: FIGS. 12A and 12B. show freshly-isolated platelets that were either stimulated (+) with TRAP-6 (10 μM) or unstimulated (−) and pre-incubated at 37° C. for 15 min with either DMSO or the indicated WASp-binding SMCs (FIG. 12A—SMC #6; FIG. 12B—SMC #33), followed by lysis. Lysates were subjected to immunoprecipitation with anti-WASp antibody and were analyzed by western blotting with anti-ubiquitin (Ub) and with anti-WASp as precipitation control. Ubiquitylated WASp appears as a smear of bands above the molecular weight (MW) of 65 kDa with a prominent band at ˜81 kDa. Blots are representative of three independent experiments.
(§1) Immunoprecipitations and western blotting analysis were performed as previously described (Reicher et al, 2012). Briefly, platelets (2×10^8 cells per sample) were lysed by the addition of an equal volume of 2× lysis buffer (30 mM HEPES pH7.4, 300 mM NaCl, 2 mM phenylmethyl sulfonyl fluoride (PMSF), 2 mM sodium orthovanadate, 2% Triton X-100 and complete protease inhibitor tablets (Roche)). MEG-01 cells (2×10^7 cells per sample) were lysed in 1.25× lysis buffer. Proteasome activity was blocked by addition of MG132 (AdooQ) to platelets and Meg-01 cell medium at final concentration of 10 μM, for 1 h before the cells were harvested. […]

WASp [2] = target: T1, WASp; assay: WASp ubiquitylation in PBMCs (immunoprecipitation, anti-ubiquitin blot); type: cell-based; settings: vs activated negative control cells
Protocol: FIGS. 12C and 12D. show freshly-isolated PBMCs that were either co-stimulated (+) with anti-CD3 and anti-CD28 or unstimulated (−). The PBMCs were pre-incubated at 37° C. for 15 min with either DMSO or the indicated WASp-binding SMCs (FIG. 12C—SMC #6; FIG. 12D—SMC #33), followed by lysis. WASp ubiquitylation was determined by immunoprecipitation as in FIG. 12A-12B. Ubiquitylated WASp appears as a smear of bands above the MW of 65 kDa with a prominent band at […]. Blots are representative of three independent experiments.
as §1, with “harvested. Densitometric analysis of band intensities was performed with ImageJ software, with final results normalized with WASp or GAPDH as loading controls for immunoprecipitated samples and whole-cell lysates, respectively.” for “harvested.”

PBMCs = assay: Lymphocyte activation in PBMCs (CD69 and activated LFA-1, flow cytometry); type: cell-based, human; settings: PBMCs stimulated with PMA and Ionomycin, vs control
Protocol: Figures show 1×10^6 PBMC cells/ml stimulated with PMA and Ionomycin that were treated with DMSO or WASp-binding SMCs. After incubation, the cells were stained with PE-Cy5™-conjugated mouse anti-human CD69 and lymphocyte activation was measured by flow-cytometry as described in the Experimental procedures. Histograms of DMSO versus SMC #6 (FIG. 8A), SMC #30 (FIG. 8B), SMC #33 (FIG. 8C), and SMC #34 (FIG. 8D) are presented and represent three independent experiments.
After incubation, the cells were stained with anti-activated LFA-1 antibody (KIM127), followed by staining with Alexa488-Fluor goat anti-mouse IgG1 secondary antibody, and lymphocyte activation was measured by flow-cytometry as described in the Experimental procedures. Histogram of negative control versus SMC #6 is presented.
PBMCs or Jurkat cells (about 3×10^5 cells) were incubated for 4 h, at 37° C. with 50 ng/ml PMA and 250 ng/ml lonomycin, or 40 ng/ml PMA and 6 μM Ionomycin, respectively, or left untreated. After incubation, the cells were collected and stained with 1 μg/ml anti-active human LFA-1 antibody (purified from KIM127 hybridoma sup, ATCC Cat #: CRL-2838, Sigma) for 30 min in 37° C., followed by staining with Alexa488-Fluor goat anti-mouse IgG1 secondary antibody (Molecular Probes, Cat #: A-21121), 30 min on ice. Cells were then co-stained with PE-Cy5™-conjugated mouse anti-human CD69 (BD Pharmingen, Cat #: 555532) to measure lymphocyte activation.
Lymphocyte activation is a hallmark of a normal immune response. To test whether treatment with WASp-binding SMCs could upregulate lymphocyte activation, freshly-isolated PBMCs were incubated with SMCs or control (solvent only) and stimulated with PMA and lonomycin. The cells were then stained with two different antibodies, which recognize two lymphocyte activation markers, CD69 and an epitope exposed at the active conformation of the integrin LFA-1 (KIM127). Both were detected by flow-cytometry.

SMILES	WASp ubiquitylation in active platelets (WASp [1])	ubiquitylation of WASp in active lymphocytes (WASp [2])	lymphocyte activation (CD69, activated LFA-1) (PBMCs)
Cc1ccccc1N(CC(=O)NCc1ccccc1)C(=O)CCC(=O)Nc1nccs1 [SMC #33, N′-[2-(benzylamino)-2-oxoethyl]-N′-(2-methylphenyl)-N-(1,3-thiazol-2-yl)butanediamide]	considerably decreased	downregulated	upregulation of lymphocyte activation
CC(=O)N[C@H]1C[C@@H](c2ccc3c(c2)nnn3C)O[C@@H](c2ccc(Cl)cc2)C1 [SMC #6, N-[(2R,4R,6S)-2-(4-chlorophenyl)-6-(1-methylbenzotriazol-5-yl)oxan-4-yl]acetamide]	considerably decreased	downregulated	upregulation of lymphocyte activation
CC1CCCC(C)N1C(=O)CSc1nnc(COc2cccc3cccnc23)o1 (stereo not shown) [SMC #34, 1-(2,6-dimethylpiperidin-1-yl)-2-[[5-(quinolin-8-yloxymethyl)-1,3,4-oxadiazol-2-yl]sulfanyl]ethanone]			upregulation of lymphocyte activation
